According to ChEMBL document CHEMBL2040759, “Design, synthesis and anticancer activity of nitric oxide donating/chalcone hybrids” (2012):

Key:
Assay type in all cases: functional
[1] = Growth inhibition of human […] cells assessed as cell growth at 10^-5 M after 48 hrs by SRB assay; details: RPMI18226, 48 h, read-out: Activity
EKVX = test: Growth inhibition of human EKVX cells assessed as cell growth at 10^-5 M after 48 hrs by SRB assay; details: read-out: Activity
HOP-62 = test: Growth inhibition of human HOP62 cells assessed as cell growth at 10^-5 M after 48 hrs by SRB assay; details: HOP-62, 48 h, read-out: Activity
NCI-H23 = test: Growth inhibition of human NCI-H23 cells assessed as cell growth at 10^-5 M after 48 hrs by SRB assay; details: NCI-H23, 48 h, read-out: Activity
CCRF-CEM = test: Growth inhibition of human CCRF-CEM cells assessed as cell growth at 10^-5 M after 48 hrs by SRB assay; details: read-out: Activity
NCI-H322M = test: Growth inhibition of human NCI-H322M cells assessed as cell growth at 10^-5 M after 48 hrs by SRB assay; details: read-out: Activity
HCC 2998 = test: Growth inhibition of human HCC2998 cells assessed as cell growth at 10^-5 M after 48 hrs by SRB assay; details: HCC 2998, 48 h, read-out: Activity
HCT-15 = test: Growth inhibition of human HCT15 cells assessed as cell growth at 10^-5 M after 48 hrs by SRB assay; details: HCT-15, 48 h, read-out: Activity
HT-29 = test: Growth inhibition of human HT-29 cells assessed as cell growth at 10^-5 M after 48 hrs by SRB assay; details: HT-29, 48 h, read-out: Activity
KM12 = test: Growth inhibition of human KM12 cells assessed as cell growth at 10^-5 M after 48 hrs by SRB assay; details: KM12, 48 h, read-out: Activity
SW-620 = test: Growth inhibition of human SW620 cells assessed as cell growth at 10^-5 M after 48 hrs by SRB assay; details: SW-620, 48 h, read-out: Activity
SF-268 = test: Growth inhibition of human SF268 cells assessed as cell growth at 10^-5 M after 48 hrs by SRB assay; details: SF-268, 48 h, read-out: Activity
SF-295 = test: Growth inhibition of human SF295 cells assessed as cell growth at 10^-5 M after 48 hrs by SRB assay; details: SF-295, 48 h, read-out: Activity
SNB-19 = test: Growth inhibition of human SNB19 cells assessed as cell growth at 10^-5 M after 48 hrs by SRB assay; details: SNB-19, 48 h, read-out: Activity
SNB-75 = test: Growth inhibition of human SNB75 cells assessed as cell growth at 10^-5 M after 48 hrs by SRB assay; details: SNB-75, 48 h, read-out: Activity
LOX IMVI = test: Growth inhibition of human LOXIMVI cells assessed as cell growth at 10^-5 M after 48 hrs by SRB assay; details: read-out: Activity
Malme-3M = test: Growth inhibition of human MALME-3M cells assessed as cell growth at 10^-5 M after 48 hrs by SRB assay; details: read-out: Activity
M14 = test: Growth inhibition of human M14 cells assessed as cell growth at 10^-5 M after 48 hrs by SRB assay; details: M14, 48 h, read-out: Activity
SK-MEL-28 = test: Growth inhibition of human SK-MEL-28 cells assessed as cell growth at 10^-5 M after 48 hrs by SRB assay; details: SK-MEL-28, 48 h, read-out: Activity
SK-MEL-5 = test: Growth inhibition of human SK-MEL-5 cells assessed as cell growth at 10^-5 M after 48 hrs by SRB assay; details: SK-MEL-5, 48 h, read-out: Activity
UACC-257 = test: Growth inhibition of human UACC257 cells assessed as cell growth at 10^-5 M after 48 hrs by SRB assay; details: UACC-257, 48 h, read-out: Activity
IGROV-1 = test: Growth inhibition of human IGROV1 cells assessed as cell growth at 10^-5 M after 48 hrs by SRB assay; details: IGROV-1, 48 h, read-out: Activity
OVCAR-3 = test: Growth inhibition of human OVCAR3 cells assessed as cell growth at 10^-5 M after 48 hrs by SRB assay; details: OVCAR-3, 48 h, read-out: Activity
OVCAR-4 = test: Growth inhibition of human OVCAR4 cells assessed as cell growth at 10^-5 M after 48 hrs by SRB assay; details: OVCAR-4, 48 h, read-out: Activity
OVCAR-5 = test: Growth inhibition of human OVCAR5 cells assessed as cell growth at 10^-5 M after 48 hrs by SRB assay; details: OVCAR-5, 48 h, read-out: Activity
OVCAR-8 = test: Growth inhibition of human OVCAR8 cells assessed as cell growth at 10^-5 M after 48 hrs by SRB assay; details: OVCAR-8, 48 h, read-out: Activity
SK-OV-3 = test: Growth inhibition of human SKOV3 cells assessed as cell growth at 10^-5 M after 48 hrs by SRB assay; details: SK-OV-3, 48 h, read-out: Activity
A498 = test: Growth inhibition of human A498 cells assessed as cell growth at 10^-5 M after 48 hrs by SRB assay; details: A498, 48 h, read-out: Activity
ACHN = test: Growth inhibition of human ACHN cells assessed as cell growth at 10^-5 M after 48 hrs by SRB assay; details: read-out: Activity
CAKI-1 = test: Growth inhibition of human Caki1 cells assessed as cell growth at 10^-5 M after 48 hrs by SRB assay; details: CAKI-1, 48 h, read-out: Activity
SN12C = test: Growth inhibition of human SN12C cells assessed as cell growth at 10^-5 M after 48 hrs by SRB assay; details: read-out: Activity
TK-10 = test: Growth inhibition of human TK10 cells assessed as cell growth at 10^-5 M after 48 hrs by SRB assay; details: TK-10, 48 h, read-out: Activity
UO-31 = test: Growth inhibition of human UO31 cells assessed as cell growth at 10^-5 M after 48 hrs by SRB assay; details: UO-31, 48 h, read-out: Activity
PC-3 = test: Growth inhibition of human PC3 cells assessed as cell growth at 10^-5 M after 48 hrs by SRB assay; details: PC-3, 48 h, read-out: Activity
DU-145 = test: Growth inhibition of human DU145 cells assessed as cell growth at 10^-5 M after 48 hrs by SRB assay; details: DU-145, 48 h, read-out: Activity
MCF7 = test: Growth inhibition of human MCF7 cells assessed as cell growth at 10^-5 M after 48 hrs by SRB assay; details: MCF7, 48 h, read-out: Activity
T47D = test: Growth inhibition of human T47D cells assessed as cell growth at 10^-5 M after 48 hrs by SRB assay; details: read-out: Activity

Structure (SMILES) | growth at 10 µM [1] [%] | growth at 10 µM (EKVX) [%] | growth at 10 µM (HOP-62) [%] | growth at 10 µM (NCI-H23) [%] | growth at 10 µM (CCRF-CEM) [%] | growth at 10 µM (NCI-H322M) [%] | growth at 10 µM (HCC 2998) [%] | growth at 10 µM (HCT-15) [%] | growth at 10 µM (HT-29) [%] | growth at 10 µM (KM12) [%] | growth at 10 µM (SW-620) [%] | growth at 10 µM (SF-268) [%] | growth at 10 µM (SF-295) [%] | growth at 10 µM (SNB-19) [%] | growth at 10 µM (SNB-75) [%] | growth at 10 µM (LOX IMVI) [%] | growth at 10 µM (Malme-3M) [%] | growth at 10 µM (M14) [%] | growth at 10 µM (SK-MEL-28) [%] | growth at 10 µM (SK-MEL-5) [%] | further results
O=C(CO[N+](=O)[O-])Nc1ccc(C(=O)/C=C/c2ccc(Cl)cc2)cc1 | -14.2 | 67.9 | 94.1 | 5.49 | 20.1 | 71.5 | -61.3 | 58.9 | -23.4 | -60.6 | -61.8 | 44.9 | 105 | 87.8 | 69.7 | -60.9 | 79.1 | 3.46 | 86.8 | 54.5 | growth at 10 µM (UACC-257): 61.2%; growth at 10 µM (IGROV-1): -26%; growth at 10 µM (OVCAR-3): 0.33%; growth at 10 µM (OVCAR-4): 76.1%; growth at 10 µM (OVCAR-5): 67%; growth at 10 µM (OVCAR-8): 27.2%; growth at 10 µM (SK-OV-3): 89.3%; growth at 10 µM (A498): 103%; growth at 10 µM (ACHN): 62.3%; growth at 10 µM (CAKI-1): 74.9%; growth at 10 µM (SN12C): 46.8%; growth at 10 µM (TK-10): 45.7%; growth at 10 µM (UO-31): 31.9%; growth at 10 µM (PC-3): 27.6%; growth at 10 µM (DU-145): 79.9%; growth at 10 µM (MCF7): 1.64%; growth at 10 µM (T47D): 55.5%
O=C(CO[N+](=O)[O-])Nc1ccc(C(=O)/C=C/c2ccc3c(c2)OCO3)cc1 | 46.8 | 99.7 | 112 | 58.1 | 70 | 108 | 69.2 | 76.7 | 30.1 | 35.9 | 47.8 | 82.4 | 74.6 | 104 | 86.3 | 21.5 | 116 | 81.8 | 104 | 90.8 | growth at 10 µM (UACC-257): 92.9%; growth at 10 µM (IGROV-1): 46.3%; growth at 10 µM (OVCAR-3): 80.6%; growth at 10 µM (OVCAR-4): 96.1%; growth at 10 µM (OVCAR-5): 96.5%; growth at 10 µM (OVCAR-8): 75.8%; growth at 10 µM (SK-OV-3): 111%; growth at 10 µM (A498): 107%; growth at 10 µM (ACHN): 99.2%; growth at 10 µM (CAKI-1): 93%; growth at 10 µM (SN12C): 95.4%; growth at 10 µM (TK-10): 111%; growth at 10 µM (UO-31): 77.1%; growth at 10 µM (PC-3): 61.4%; growth at 10 µM (DU-145): 96.7%; growth at 10 µM (MCF7): 26.2%; growth at 10 µM (T47D): 83%
